One block for each compound: values may come before it.
Tests used:
[1] = Malvern laser diffraction particle sizing (Mastersizer X) of crystalline fluticasone propionate particles; format: physicochemical
Protocol: A continuous flow reaction cell with 2 diametrically opposite inlets at the bottom and a run-out ca. half way up the side of the vessel is used in the experiment. The drug substance (fluticasone propionate, FP) is dissolved in acetone (15 vol, 0.133 M) at elevated temperature (50-56° C.) and then allowed to cool to ambient temperature (20° C.). A solution of FP is then pumped using a peristaltic pump into one of the bottom inlets of the reaction cell. Water was similarly pumped via the other inlet from a water reservoir using a second pump.
Re-crystallisations are carried out from various mixtures of acetone and water (by altering the flow rates of each) as dictated by the parameters set out in the experimental design. Efficient mixing of the two streams is ensured with the aid of a non-grinding magnetic stirrer bar.
(§1) Before carrying out any particular crystallisation, the cell is pre-charged with a mixture of acetone/water (the ratio of each being the same as the relative pumping rates from the two reservoirs). By doing this, the relative concentrations of the water to acetone remains constant throughout the crystallisation. The tip of the sono-probe is arranged so that it is just above the inlet for the FP solution. When the magnetic stirrer, sono-probe and pumps are turned on, rapid onset of crystallisation takes place. A suspension of the crystallisation mixture exits via the overflow directly on to a filter funnel thus minimising the opportunity for further crystal growth.
(§2) Using the above set-up, the experiments set out in the experimental design shown below were carried out and the samples of damp solid harvested and dried in vacuo at ambient temperature. All the samples were sized using the Malvern laser diffraction particle sizer and the results analysed using multi-dimensional model fitting software (such as Design Expert 5).
Ultrasound Power is given as a percentage of maximum (50 W). Ultrasound frequency was 22 kHz.
(§3) Samples were analysed using Malvern laser diffraction particle sizing.
Instrument: Malvern Mastersizer X
Lens: 45 mm Reverse Fourier
Analysis: 0607 presentation code
(§4) Dispersant: Iso Octane / Lecithin 0.05% w/w
Pre dispersion: Sonicate for 10 seconds
(§5) One analysis per sample was carried out. The median particle size (D50), particle size at 90% undersize (D90) and particle size at 10% undersize (D10) were used as responses to characterise the medium, course, and fine particles. In addition a fourth response, uniformity index (Ul) was calculated as a measure of the breadth of the distribution.
Uniformity Index (Ul) is calculated as 100×D10/D90.

[2] = Malvern laser diffraction particle sizing (Mastersizer S) of crystalline salmeterol xinafoate particles; format: physicochemical; details: methanol solution 7 ml/min
Protocol: A continuous flow reaction cell with 2 diametrically opposite inlets at the bottom and a run-out ca. half way up the side of the vessel is used in the experiment. […] The drug substance (salmeterol xinafoate) is dissolved in methanol (6 vol) at elevated temperature
(65° C.). A solution of salmeterol xinafoate (0.276 M) is then pumped (a fixed rate of 7 ml/min) using a peristaltic pump into one of the bottom inlets of the reaction cell. Cold water was similarly pumped via the other inlet from a water reservoir using a second pump at rates as dictated by the experimental design.
Re-crystallisations are carried out from various mixtures of methanol and water as dictated by the parameters set out in the experimental design. Efficient mixing of the two streams is ensured with the aid of a non-grinding magnetic stirrer bar. The stirrer speed is maintained constant at all times. The stir speed is set at such a rate so as to induce a minimum amount of vortex.
as §1, with “methanol/water” for “acetone/water”, “methanol” for “acetone”, “salmeterol” for “FP”
as §2
Ultrasound Power is given as a percentage of maximum (600 W). Ultrasound frequency was 22 kHz.
as §3
Instrument: Malvern Mastersizer S
Lens: 300 mm Reverse Fourier
Analysis: presentation code 30 GE
as §4
Pre dispersion: Sonicate for 1 Minute
as §5, with “10 %” for “10%”
Uniformity Index (Ul) is calculated as 100×D 10/D90.

[3] = Run 1: water 24 ml/min, acetone solution 3.50 ml/min, stirring 40.00 %, ultrasound 0.00 % of 50 W
[4] = Run 2: water 18 ml/min, acetone solution 5.25 ml/min, stirring 20.00 %, ultrasound 20.00 % of 50 W
[5] = Run 3: water 24 ml/min, acetone solution 3.50 ml/min, stirring 0.00 %, ultrasound 40.00 % of 50 W
[6] = Run 4: water 12 ml/min, acetone solution 7.00 ml/min, stirring 0.00 %, ultrasound 40.00 % of 50 W
[7] = Run 5: water 24 ml/min, acetone solution 7.00 ml/min, stirring 40.00 %, ultrasound 40.00 % of 50 W
[8] = Run 6: water 18 ml/min, acetone solution 5.25 ml/min, stirring 20.00 %, ultrasound 20.00 % of 50 W
[9] = Run 7: water 12 ml/min, acetone solution 3.50 ml/min, stirring 0.00 %, ultrasound 0.00 % of 50 W
[10] = Run 8: water 12 ml/min, acetone solution 7.00 ml/min, stirring 40.00 %, ultrasound 0.00 % of 50 W
[11] = Run 9: water 12 ml/min, acetone solution 3.50 ml/min, stirring 40.00 %, ultrasound 40.00 % of 50 W
[12] = Run 10: water 24 ml/min, acetone solution 7.00 ml/min, stirring 0.00 %, ultrasound 0.00 % of 50 W
[13] = Run 1: water 14 ml/min, ultrasound 10.00 % of 600 W
[14] = Run 2: water 56 ml/min, ultrasound 10.00 % of 600 W
[15] = Run 3: water 56 ml/min, ultrasound 90.00 % of 600 W
[16] = Run 4: water 56 ml/min, ultrasound 90.00 % of 600 W
[17] = Run 5: water 56 ml/min, ultrasound 10.00 % of 600 W
[18] = Run 6: water 14 ml/min, ultrasound 10.00 % of 600 W
[19] = Run 7: water 35 ml/min, ultrasound 50.00 % of 600 W
[20] = Run 8: water 14 ml/min, ultrasound 90.00 % of 600 W
[21] = Run 9: water 35 ml/min, ultrasound 50.00 % of 600 W
[22] = Run 10: water 14 ml/min, ultrasound 90.00 % of 600 W

D10 particle size at 10% undersize [1, 3]: 1.07 μm | D50 median particle size [1, 3]: 4.95 μm | D90 particle size at 90% undersize [1, 3]: 18.91 μm | UI uniformity index (100×D10/D90) [1, 3]: 5.7% | D10 particle size at 10% undersize [1, 4]: 1.02 μm | D50 median particle size [1, 4]: 4.56 μm | D90 particle size at 90% undersize [1, 4]: 14.29 μm | UI uniformity index (100×D10/D90) [1, 4]: 7.1% | D10 particle size at 10% undersize [1, 5]: 1 μm | D50 median particle size [1, 5]: 4.2 μm | D90 particle size at 90% undersize [1, 5]: 18.3 μm | UI uniformity index (100×D10/D90) [1, 5]: 5.3% | D10 particle size at 10% undersize [1, 6]: 2.62 μm | D50 median particle size [1, 6]: 7.52 μm | D90 particle size at 90% undersize [1, 6]: 20.83 μm | UI uniformity index (100×D10/D90) [1, 6]: 12.6% | D10 particle size at 10% undersize [1, 7]: 1.05 μm | D50 median particle size [1, 7]: 4.3 μm | D90 particle size at 90% undersize [1, 7]: 14.66 μm | UI uniformity index (100×D10/D90) [1, 7]: 7.2% | D10 particle size at 10% undersize [1, 8]: 0.89 μm | D50 median particle size [1, 8]: 5.28 μm | D90 particle size at 90% undersize [1, 8]: 17.16 μm | UI uniformity index (100×D10/D90) [1, 8]: 5.1% | D10 particle size at 10% undersize [1, 9]: 2.32 μm | D50 median particle size [1, 9]: 9.34 μm | D90 particle size at 90% undersize [1, 9]: 28.97 μm | UI uniformity index (100×D10/D90) [1, 9]: 8% | D10 particle size at 10% undersize [1, 10]: 1.06 μm | D50 median particle size [1, 10]: 3.46 μm | D90 particle size at 90% undersize [1, 10]: 9.33 μm | UI uniformity index (100×D10/D90) [1, 10]: 11.4% | D10 particle size at 10% undersize [1, 11]: 0.97 μm | D50 median particle size [1, 11]: 3.67 μm | D90 particle size at 90% undersize [1, 11]: 11.47 μm | UI uniformity index (100×D10/D90) [1, 11]: 8.5% | D10 particle size at 10% undersize [1, 12]: 1.48 μm | D50 median particle size [1, 12]: 9.79 μm | D90 particle size at 90% undersize [1, 12]: 37.62 μm | UI uniformity index (100×D10/D90) [1, 12]: 3.9%
Structure (SMILES): CCC(=O)O[C@]1(C(=O)SCF)[C@H](C)C[C@H]2[C@@H]3C[C@H](F)C4=CC(=O)C=C[C@]4(C)[C@@]3(F)[C@@H](O)C[C@@]21C [fluticasone propionate]

D10 particle size at 10% undersize [2, 13]: 1.6 μm | D50 median particle size [2, 13]: 10.1 μm | D90 particle size at 90% undersize [2, 13]: 24.78 μm | UI uniformity index (100×D10/D90) [2, 13]: 6.46% | D10 particle size at 10% undersize [2, 14]: 0.48 μm | D50 median particle size [2, 14]: 3.9 μm | D90 particle size at 90% undersize [2, 14]: 10.21 μm | UI uniformity index (100×D10/D90) [2, 14]: 4.70% | D10 particle size at 10% undersize [2, 15]: 0.64 μm | D50 median particle size [2, 15]: 4.24 μm | D90 particle size at 90% undersize [2, 15]: 14.45 μm | UI uniformity index (100×D10/D90) [2, 15]: 4.42% | D10 particle size at 10% undersize [2, 16]: 0.53 μm | D50 median particle size [2, 16]: 4.29 μm | D90 particle size at 90% undersize [2, 16]: 17.62 μm | UI uniformity index (100×D10/D90) [2, 16]: 3.01% | D10 particle size at 10% undersize [2, 17]: 0.39 μm | D50 median particle size [2, 17]: 4.74 μm | D90 particle size at 90% undersize [2, 17]: 16.8 μm | UI uniformity index (100×D10/D90) [2, 17]: 2.32% | D10 particle size at 10% undersize [2, 18]: 2.17 μm | D50 median particle size [2, 18]: 11.09 μm | D90 particle size at 90% undersize [2, 18]: 23.37 μm | UI uniformity index (100×D10/D90) [2, 18]: 9.28% | D10 particle size at 10% undersize [2, 19]: 1.08 μm | D50 median particle size [2, 19]: 4.75 μm | D90 particle size at 90% undersize [2, 19]: 13.45 μm | UI uniformity index (100×D10/D90) [2, 19]: 8.03% | D10 particle size at 10% undersize [2, 20]: 1.63 μm | D50 median particle size [2, 20]: 6.37 μm | D90 particle size at 90% undersize [2, 20]: 20.37 μm | UI uniformity index (100×D10/D90) [2, 20]: 8.00% | D10 particle size at 10% undersize [2, 21]: 1.88 μm | D50 median particle size [2, 21]: 4.99 μm | D90 particle size at 90% undersize [2, 21]: 11.76 μm | UI uniformity index (100×D10/D90) [2, 21]: 15.99% | D10 particle size at 10% undersize [2, 22]: 1.77 μm | D50 median particle size [2, 22]: 7.86 μm | D90 particle size at 90% undersize [2, 22]: 24.96 μm | UI uniformity index (100×D10/D90) [2, 22]: 7.09%
Structure (SMILES): OCc1cc(C(O)CNCCCCCCOCCCCc2ccccc2)ccc1O (centres unmarked) [salmeterol xinafoate]

— patent publication US6482438B1, “Apparatus and process for preparing crystalline particles” (SmithKline Beecham Corporation, priority 1998, dated 2002)
